# Experimental data published in patent US20060264497A1, “Diindolylmethane-based compositions and methods of use thereof for promoting oral mucosal and bone health” (priority 2005, published 2006).
# Marks after values point to notes of the source that are not given here.
# Columns and labels:
# [1] = test system: osteoclasts in metaphyseal bone; assay: Bone histomorphometry: osteoclast number after one year feeding of DIM or I3C; type: in vivo, rats; conditions: 1 year; for Osteoclast Cell Number in Metaphyseal Bone: DIM 20 mg/kg/day (BioResponse-DIM), I3C 50 mg/kg/day in diet
# Procedure: A one year study was conducted including evaluation of the impact of chronic feeding of DIM and I3C versus control diet in rats. The study used a dose of 20 mg/kg/day DIM, formulated for increased absorption (BioResponse-DIM, BioResponse, Boulder, Colo. [Example 1]), and 50 mg/kg/day Indole-3-Carbinol (I3C) (Sigma Chemical, St. Louis, Mo.). Bone histomorphometry was performed comparing metaphyseal bone in male and female animals using established techiques (Huffer W E, Ruegg P, Zhu J M, Lepoff R B., Semiautomated methods for cancellous bone histomorphometry using a general-purpose video image analysis system. J Microsc. 1994 January; 173 (Pt 1):53-66). Counts of osteoclast number, averaged for male and female groups are summarized in the following chart: […]
# [2] = Dissolution of DIM containing particles (release rate profile); type: physicochemical; conditions: pH 6.8 phosphate buffer, 0.5% Tween 80, 37° C., 50 rpm
# Procedure: Testing of Dissolution of DIM Containing Particles: In order to determine the release rate profiles of DIM from matrix, particle formulations, a test using pH 6.8 phosphate buffer system containing 0.5% Tween 80 was utilized. The procedure included dissolving an amount of spray dried particles containing a known amount of DIM in a standard dissolution apparatus with standard simulated saliva solution. For the following testing, 900 ml of stock pH 6.8 buffer solution was placed into a round bottom beaker in the dissolution test apparatus. To the solution, 5 g of Tween 80 (Sorbitan Monooleate) was added and mixed while bringing to a temperature of 37° C. To this, 600 mg of a test sample with known DIM content was added to the solution and stirred at 50 rpm. At timed intervals 3.0 ml aliquots of solution was removed and filtered through 0.22 um filter. The absorption of the sample was read at 283 nm on an […], blanking vs. pH 6.8 buffer containing 0.5% Tween 80. The percent released DIM compared to the 100% complete, theoretical level was calculated.
# [3] = Case report: DIM treatment of a subject with rheumatoid arthritis and gingivitis; type: in vivo, human; conditions: oral, subject with rheumatoid arthritis
# Procedure: (§1) A person with a diagnosis of rheumatoid arthritis was referred for Diinolylmethane (DIM) treatment due to intolerance of oral Plaquenil®. […] They had diffuse small joint pain and elevated Rheumatoid Factor and Antinuclear Antigen serum titers. […] On probing, a total of 12 bleeding sites were documented. They began taking DIM (BioResponse-DIM 150, BioResponse, Boulder, Colo.) taking 50 mg of DIM twice daily.
# as §1, with “daily. […] Subsequently they discontinued use of DIM and noted gradual return of painful swollen joints in their hands over 2 months.” for “daily.”
# [4] = test system: mouse osteoclast-like multinucleated cells (OCLs); assay: Pit formation assay on dentine slices; conditions: 0.5-50 micromolar, 24 h and 48 h
# Source text: Osteoblasts will be obtained from the calvariae of newborn ddY mice and bone marrow cells will be obtained from the tibiae of male mice and be cocultured in aMEM (Life Technologies, Grand Island, N.Y.) containing 10% FBS, 1α,25-dihydroxyvitamin D3 (10^−8 M) (Wako Pure Chemical, Osaka, Japan) and PGE2 (10^−6 M) (Sigma) in 100-mm-diameter dishes coated with collagen gels (Nitta Gelatin, Osaka). OCLs will be formed within 6 days in culture and will be removed from the dishes by treating with 0.2% collagenase (Wako). The purity of OCLs in this fraction (crude OCL preparation) will be about 5%. To further purify the OCLs, the crude OCL preparation will be replated on culture dishes. After further culture for 8 h, osteoblasts will be removed with PBS containing 0.001% pronase E (Calbiochem, La Jolla, Calif.) and 0.02% EDTA.
# OCLs preparations (15,000 cells/0.1 ml/well) will be seeded on dentine slices (4-mm diameter) which had been placed in 96-well plates. […] Pit formation by OCls will be determined after culture for 24 h and 48 h. […] The numbers of pits on the slices will be counted. To quantitate pit-forming activity of OCLs, the areas of resorption lacunae will also be measured with an image analysis system (LA-525; PIAS Co., Tokyo). The results will be expressed as the percentage of resorbed area with respect to the whole surface area of a dentine slice.
# [5] = cited from earlier work
# rat bone osteoclasts = conditions: Gao and Yamaguchi 1999; cited from earlier work
smiles,measurement,setting,value
"OCc1c[nH]c2ccccc12 [I3C, Indole-3-carbinol, reference compound]",Osteoclast Cell Number in Metaphyseal Bone,[1]; female rats,18.3
same,Osteoclast Cell Number in Metaphyseal Bone,[1]; male rats,14.3*
"c1ccc2c(Cc3c[nH]c4ccccc34)c[nH]c2c1 [Microcrystalline DIM, 3,3′-diindolylmethane]",Percent DIM Released from Particle,[2]; 0 minutes,0%
same,Percent DIM Released from Particle,[2]; 15 minutes,55.1%
same,Percent DIM Released from Particle,[2]; 30 minutes,73.6%
same,Percent DIM Released from Particle,[2]; 45 minutes,78.8%
same,Percent DIM Released from Particle,[2]; 60 minutes,83.5%
CCN(CCO)CCCC(C)Nc1ccnc2cc(Cl)ccc12 (stereo not shown) [Plaquenil],Tolerance (adverse effect),[3],unacceptable dizziness
"c1ccc2c(Cc3c[nH]c4ccccc34)c[nH]c2c1 [DIM, 3,3′-diindolylmethane]",Osteoclast Cell Number in Metaphyseal Bone,[1]; female rats,14.3
same,Osteoclast Cell Number in Metaphyseal Bone,[1]; male rats,9.3*
same,Change in osteoclast number versus I3C treated and control animals,[1]; rats,reduction in osteoclast number
same,Pit formation by OCLs (osteoclast function and survival),[4],inhibition of pit formation
"O=c1c(-c2ccc(O)cc2)coc2cc(O)cc(O)c12 [Genistein, 4′,5,7-trihydroxyisoflavone]",Bone mineral density,"[5]; 52 mg/day, year long clinical trial",failed to show any measurable improvement
same,Serum and urinary indicators of ongoing bone loss,"[5]; 90 mg/day, clinical trial",failed to reduce
same,Potency of inhibiting the function of osteoclasts relative to daidzein,rat bone osteoclasts,about 10 times
"CC(C)Oc1ccc2c(=O)c(-c3ccccc3)coc2c1 [Ipriflavone, 3-phenyl-7-propan-2-yloxy-chromen-4-one]",Measures of bone health,"[5]; 600 mg/day, 3 years of treatment, controlled trial",no significant improvement
